Patent USRE37839E1, “O-benzyloxime ethers and crop protection agents containing these compounds” (BASF Aktiengesellschaft, priority 1990, dated 2002)

Columns and labels:
[1] = tested on: Plutella maculipennis (diamondback moth); assay: Plutella maculipennis (diamondback moth); ingestion-inhibiting action; type: in vivo; conditions: Plutella maculipennis 4th-stage caterpillars on dipped kohlrabi leaves, after 48 hours
Description: Young kohlrabi leaves are dipped for 3 seconds into aqueous solutions of the candidate compounds, and then placed on a round filter paper 9 cm in diameter which has been moistened with 0.5 ml of water. The filter paper is then placed in a Petri dish 10 cm in diameter. 10 caterpillars in the 4th larval stage are then placed on each leaf and the Petri dish is closed. Ingestion inhibition is determined in % after 48 hours.

[2] = tested on: Musca domestica (housefly); assay: Musca domestica (housefly); continuous contact action; type: in vivo; conditions: continuous contact in Petri dish, counted after 24 hours
Description: Both the tops and bottoms of Petri dishes 10 cm in diameter were lined with a total of 1 ml of acetonic solutions of the active ingredients. After the solvent had evaporated (about 30 mins.), 10 files and absorbent cotton steeped in water were introduced into each dish and the dishes closed. The flies in supine position were counted after 24 hours.
If a kill rate of 80 to 100% occurs at a concentration of 0.01 mg/dish, the test is continued with falling concentrations.

[3] = tested on: Plasmopara viticola; assay: Action on Peronospora in grapes; conditions: 0.025 wt % spray liquors; leaves infected 8 days after spraying
Description: Leaves of potted vines of the “Müller Thurgau” variety were sprayed with aqueous liquors containing (dry basis) 80% of active ingredient and 20% of emulsifier. To assess the duration of action of the active ingredients, the plants were, after the sprayed-on layer had dried, set up in the greenhouse for 8 days. Only then were the leaves infected with a zoospore suspension of Plasmopara viticola. The vines were then placed for 48 hours in a water-vapor-saturated chamber at 24° C. and then for 5 days in a greenhouse at from 20° to 30° C. To accelerate the sporangiophore discharge, the plants were then again set up in the moist chamber for 16 hours. The extent to which the leaves had been attacked was then assessed.

[4] = tested on: brown rust (Puccinia recondita); assay: Action on wheat brown rust; type: in vivo, Puccinia recondita on wheat seedlings ("Kanzler"); conditions: 0.025 wt % spray liquors; sprayed 24 h after infection; assessed after 8 days
Description: Leaves of pot-grown wheat seedlings of the “Kanzler” variety were dusted with spores of brown rust (Puccinia recondita). The pots were then placed for 24 hours at 20° to 22° C. in a high-humidity (90-95%) chamber. During this period the spores germinated and the germ tubes penetrated the leaf tissue. […] After the sprayed-on layer had dried, the plants were set up in the greenhouse at 20° to 22° C. and a relative humidity of 65 to 70%. The extent of rust fungus spread on the leaves was assessed after 8 days.

[5] = tested on: Pyricularia oryzae; type: in vivo, Pyricularia oryzae on rice seedlings ("Bahia"); conditions: 0.05 wt % spray liquors; protective, inoculated 24 hours after spraying; assessed after 6 days

| SMILES | fungicidal action [3] [%] | fungicidal action [4] [%] | fungicidal action [5] [%] | other results |
| --- | --- | --- | --- | --- |
| COC=C(C(=O)OC)c1ccccc1CON=C(C)c1cc(Cl)cc(Cl)c1 [compound 582] | – | – | – | Mortality in % ([1]; application rate 400 ppm): 100%; Mortality in % ([2]; application rate 0.1 ppm): 80% |
| COC=C(C(=O)OC)c1ccccc1CON=C(C)c1cccc(Br)c1 [compound 592] | – | – | – | Mortality in % ([1]; application rate 400 ppm): 80% |
| COC=C(C(=O)OC)c1ccccc1CON=C(C#N)OC1CCCCO1 (stereo not shown) [compound 429] | – | – | – | Mortality in % ([1]; application rate 1000 ppm): 80% |
| CON=C(C(=O)OC)c1ccccc1CON=C(C#N)C(C)(C)SC [Compound no. 43 (Table II)] | 95 | – | – | – |
| COC=C(C(=O)OC)c1ccccc1CON=C(c1ccc(OC)cc1)C1CC1 [17 (Table I)] | 95 | 95 | – | – |
| COC=C(C(=O)OC)c1ccccc1CON=C(C)c1ccc(Br)cc1 [Compound no. 593 (Table I), Methyl 3-methoxy-2-[2′-(1″-(4′″-bromophenyl)-1″-methyl)-iminooxymethyl]-phenylacrylate] | 95 | – | 100 | – |
| COC=C(C(=O)OC)c1ccccc1CON=C(C)c1cccc(C(F)(F)F)c1 [Compound no. 705 (Table I)] | 95 | 95 | – | – |
| COC=C(C(=O)OC)c1ccccc1CON=C(C)c1cccc(C)c1 [616 (Table I)] | 95 | 95 | 100 | – |
| CON=C(C(=O)OC)c1ccccc1CON=C(C#N)OC1CCCCO1 (stereo not shown) [Compound no. 429 (Table II)] | 95 | – | – | – |
| CON=C(C(=O)OC)c1ccccc1CON=C(c1ccc(OC)cc1)C1CC1 [17 (Table II)] | 95 | 95 | 100 | – |
| COC=C(C(=O)OC)c1ccccc1CON=C(c1ccc(F)cc1)C1CC1 [Compound no. 15 (Table I)] | 95 | 95 | – | – |
| CON=C(C(=O)OC)c1ccccc1CON=C(C)c1cc(Cl)cc(Cl)c1 [Compound no. 582 (Table II), Methyl 2-methoximino-2-[2′-(1″-(3′″,5′″-dichlorophenyl)-1″-methyl)-iminooxymethyl]-phenylacetate] | 95 | – | 100 | – |
| CON=C(C(=O)OC)c1ccccc1CON=C(C)c1ccc(C(C)(C)C)cc1 [Compound no. 644 (Table II)] | 95 | 95 | 100 | – |
| CON=C(C(=O)OC)c1ccccc1CON=C(C#N)C(C)C [Compound no. 49 (Table II)] | 95 | – | – | – |
| COC=C(C(=O)OC)c1ccccc1CON=C(C#N)C(C)C [compound 49] | – | – | – | Mortality in % ([1]; application rate 200 ppm): 80%; Mortality in % ([2]; application rate 0.1 ppm): 80% |
| COC=C(C(=O)OC)c1ccccc1CON=C(C#N)OC1CCCCO1 (stereo not shown) [429 (Table I)] | 95 | 95 | 100 | – |
| COC=C(C(=O)OC)c1ccccc1CON=C(C)c1cccc(C(F)(F)F)c1 [compound 705] | – | – | – | Mortality in % ([1]; application rate 400 ppm): 80%; Mortality in % ([2]; application rate 0.1 ppm): 100% |
| COC=C(C(=O)OC)c1ccccc1CON=C(c1ccc(Cl)cc1)C1CC1 [compound 16] | – | – | – | Mortality in % ([1]; application rate 400 ppm): 80% |
| COC=C(C(=O)OC)c1ccccc1CON=C(C#N)C(C)C [49 (Table I)] | 95 | 95 | – | – |
| COC=C(C(=O)OC)c1ccccc1CON=C(c1ccc(Cl)cc1)C1CC1 [16 (Table I)] | 95 | 95 | – | – |
| COC=C(C(=O)OC)c1ccccc1CON=C(C)c1ccc(C(F)(F)F)cc1 [Compound no. 706 (Table I)] | 95 | – | 100 | – |
| CON=C(C(=O)OC)c1ccccc1CON=C(C)c1ccc(F)cc1 [Compound no. 571 (Table II)] | – | – | 100 | – |
| CON=C(C(=O)OC)c1ccccc1CON=C(C#N)c1ccccc1 [Compound no. 117 (Table II)] | 95 | – | – | – |

| SMILES | fungicidal action [3] [%] | fungicidal action [4] [%] | fungicidal action [5] [%] | other results |
| --- | --- | --- | --- | --- |
| COC=C(C(=O)OC)c1ccccc1CON=C(C)c1ccccc1C(F)(F)F [Compound no. 704 (Table I)] | 95 | 95 | – | – |
| COC=C(C(=O)OC)c1ccccc1CON=C(C)c1cccc(Br)c1 [Compound no. 592 (Table I)] | 95 | 95 | 100 | – |
| CON=C(C(=O)OC)c1ccccc1CON=C(c1ccc(F)cc1)C1CC1 [Compound no. 15 (Table II)] | 95 | – | 100 | – |
| CON=C(C(=O)OC)c1ccccc1CON=C(C)c1ccc(C2CCCCC2)cc1 [Compound no. 782 (Table II)] | – | – | 100 | – |
| COC=C(C(=O)OC)c1ccccc1CON=C(C#N)c1ccc(F)c(Cl)c1 [Compound no. 156 (Table I)] | 95 | – | – | – |
| COC=C(C(=O)OC)c1ccccc1CON=C(C)c1ccc(Br)cc1 [compound 593] | – | – | – | Mortality in % ([1]; application rate 1000 ppm): 80%; Mortality in % ([2]; application rate 0.1 ppm): 60% |
| COC=C(C(=O)OC)c1ccccc1CON=C(C#N)C(C)(C)OC [compound 36] | – | – | – | Mortality in % ([1]; application rate 200 ppm): 80%; Mortality in % ([2]; application rate 1.0 ppm): 80% |
| CON=C(C(=O)OC)c1ccccc1CON=C(C)c1cccc(Br)c1 [Compound no. 592 (Table II)] | – | – | 100 | – |
| COC=C(C(=O)OC)c1ccccc1CON=C(C)c1ccc(Cl)cc1Cl [Compound no. 578 (Table I)] | 95 | 95 | – | – |
| CON=C(C(=O)OC)c1ccccc1CON=C(C)c1ccc([N+](=O)[O-])cc1 [Compound no. 614 (Table II), Methyl 2-methoximino-2-[2′-(1″-(4′″-nitrophenyl)-1″-methyl)-iminooxymethyl]-phenylacetate] | 95 | – | – | – |
| COC=C(C(=O)OC)c1ccccc1CON=C(C)c1ccc(C(F)(F)F)cc1 [compound 706] | – | – | – | Mortality in % ([1]; application rate 400 ppm): 80%; Mortality in % ([2]; application rate 0.1 ppm): 100% |
| CON=C(C(=O)OC)c1ccccc1CON=C(c1ccc(Cl)cc1)C1CC1 [Compound no. 16 (Table II)] | 95 | – | 100 | – |
| CON=C(C(=O)OC)c1ccccc1COc1ccccc1 [A, 2-(phenoxymethyl)-phenylglyoxylic acid-methyl ester-O-methyloxime, reference compound] | 50 | 50 | – | – |
| CON=C(C(=O)OC)c1ccccc1CON=C(C#N)C(C)(C)OC [Compound no. 36 (Table II)] | 95 | – | – | – |
| COC=C(C(=O)OC)c1ccccc1CON=C(C)c1ccccc1Cl [Compound no. 573 (Table I)] | 95 | 95 | – | – |
| CON=C(C(=O)OC)c1ccccc1CON=C(C#N)C1CC1 [Compound no. 56 (Table II)] | 95 | – | – | – |
| COC=C(C(=O)OC)c1ccccc1CON=C(C)c1cc(Cl)cc(Cl)c1 [Compound no. 582 (Table I), Methyl 3-methoxy-2-[2′-[1″-(3′″,5′″-dichlorophenyl)-1″-methyl]-iminooxymethyl]-phenylacrylate] | 95 | 95 | – | – |
| COC=C(C(=O)OC)c1ccccc1CON=C(C)c1cc(Cl)ccc1Cl [Compound no. 579 (Table I)] | 95 | – | – | – |
| CON=C(C(=O)OC)c1ccccc1CON=C(C)c1ccc(Oc2ccccc2)cc1 [Compound no. 769 (Table II)] | – | – | 100 | – |
| CON=C(C(=O)OC)c1ccccc1CON=C(C)c1ccc(Cl)c(Cl)c1Cl [Compound no. 583 (Table II)] | – | – | 100 | – |
| COC=C(C(=O)OC)c1ccccc1CON=C(C)c1ccc(Cl)c(Cl)c1Cl [Compound no. 583 (Table I)] | 95 | – | 100 | – |
| CCOC(C)(C)C(C#N)=NOCc1ccccc1C(=COC)C(=O)OC [compound 37] | – | – | – | Mortality in % ([2]; application rate 0.1 ppm): 100% |
| COC=C(C(=O)OC)c1ccccc1CON=C(c1ccccc1)C1CC1 [14 (Table I)] | 95 | 95 | – | – |
